We go through one compound from publication PMC3135366 (The Journal of Experimental Medicine, 2011).

Molecules are shown by their SMILES.

This experiment deals with T1, E. coli DOXPRI (Escherichia coli, UniProt P45568).
T1 sequence (P45568 1-398): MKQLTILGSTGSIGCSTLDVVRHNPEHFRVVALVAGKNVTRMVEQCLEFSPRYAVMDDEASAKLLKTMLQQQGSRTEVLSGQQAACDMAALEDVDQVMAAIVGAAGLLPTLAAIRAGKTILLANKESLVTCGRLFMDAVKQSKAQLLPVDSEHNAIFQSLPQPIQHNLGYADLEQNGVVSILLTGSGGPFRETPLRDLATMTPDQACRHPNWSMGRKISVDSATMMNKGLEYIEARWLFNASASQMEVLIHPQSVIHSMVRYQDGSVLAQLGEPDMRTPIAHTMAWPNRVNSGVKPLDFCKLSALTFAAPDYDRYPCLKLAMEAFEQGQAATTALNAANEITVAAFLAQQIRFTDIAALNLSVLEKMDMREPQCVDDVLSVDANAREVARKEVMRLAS
The experiment can be described thus: NADPH oxidation assay. It is filed as biochemical.

On to `NC(=O)C1=CN([C@@H]2O[C@H](COP(=O)(O)OP(=O)(O)OC[C@H]3O[C@@H](n4cnc5c(N)ncnc54)[C@H](OP(=O)(O)O)[C@@H]3O)[C@@H](O)[C@H]2O)C=CC1` [NADPH], for which the NADPH oxidation assay entry is reported as “noted robust activity for the E. coli enzyme expressed in parallel”.
